Experimental data published in ChEMBL document CHEMBL1201862, “PubChem BioAssay data set” (2004).
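96-well plates; 48 h exposure; 5 concentrations. Endpoints by linear interpolation between flanking doses. Not reached: highest tested concentration assigned. GI50 is the concentration that inhibits growth by half.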 Activity calls are given as the source filed them. Cut-off read from the data, not from the text of the source: active = GI50 up to about 1.1 µM and inactive = higher.

Tests used:
Test in all cases: NCI anticancer screen, dose series, 48 h
786-0 = tested on: 786-0
A498 = tested on: A498
BT-549 = tested on: BT-549
CAKI-1 = tested on: CAKI-1
EKVX = tested on: EKVX
HCT-116 = tested on: HCT-116
HT-29 = tested on: HT-29
IGROV-1 = tested on: IGROV-1
MCF7 = tested on: MCF7
MOLT-4 = tested on: MOLT-4
NCI-H226 = tested on: NCI-H226
NCI-H23 = tested on: NCI-H23
NCI-H522 = tested on: NCI-H522
OVCAR-4 = tested on: OVCAR-4
OVCAR-8 = tested on: OVCAR-8
RPMI-8226 = tested on: RPMI-8226
SK-MEL-28 = tested on: SK-MEL-28
TK-10 = tested on: TK-10
U-251 = tested on: U-251
SNB-75 = tested on: SNB-75

Measured: GI50

COC(=O)c1sc2c(c1C(=O)OC)/C(=N/C(C)(C)C)S/C2=N\C(C)(C)C
inactive: 786-0 15 µM | A498 17.8 µM | BT-549 19 µM | CAKI-1 17.2 µM | EKVX 16.3 µM | HCT-116 15.6 µM | HT-29 16.4 µM | IGROV-1 19.6 µM | MCF7 17.7 µM | MOLT-4 15.1 µM | NCI-H226 16.3 µM | NCI-H23 18.8 µM | NCI-H522 18.5 µM | OVCAR-4 17.7 µM | OVCAR-8 19.5 µM | RPMI-8226 15.2 µM | SK-MEL-28 17.3 µM | TK-10 17.2 µM | U-251 17.1 µM

Cc1ccsc1/C=N/Nc1cnccn1
inactive: 786-0 > 100 µM | A498 62.4 µM | BT-549 > 100 µM | CAKI-1 > 100 µM | EKVX 63.5 µM | HCT-116 > 100 µM | HT-29 76.9 µM | IGROV-1 40.1 µM | MCF7 3.53 µM | MOLT-4 78.7 µM | NCI-H226 > 100 µM | NCI-H23 > 100 µM | OVCAR-4 > 100 µM | OVCAR-8 27.4 µM | RPMI-8226 > 100 µM | SK-MEL-28 > 100 µM | SNB-75 > 100 µM | TK-10 > 100 µM | U-251 > 100 µM

CCCCCCc1cc2cc(C(=O)Nc3ccccc3F)c(=N)oc2cc1O
inactive: 786-0 11.9 µM | A498 14.4 µM | BT-549 5.36 µM | CAKI-1 6.32 µM | EKVX 10.4 µM | HCT-116 5.7 µM | HT-29 24.7 µM | IGROV-1 3.34 µM | MCF7 3.85 µM | MOLT-4 3.21 µM | NCI-H23 3.18 µM | NCI-H522 2.69 µM | OVCAR-4 4.93 µM | OVCAR-8 2.89 µM | RPMI-8226 3.66 µM | SK-MEL-28 7.69 µM | U-251 4.81 µM

ClCCN(CCCl)c1ccc(CNCCCNCc2ccc(N(CCCl)CCCl)cc2)cc1
inactive: 786-0 2 µM | A498 7.24 µM | BT-549 3.38 µM | CAKI-1 6.64 µM | EKVX 2.69 µM | HCT-116 4.13 µM | HT-29 1.87 µM | IGROV-1 1.92 µM | MCF7 1.21 µM | NCI-H226 6.75 µM | NCI-H23 3 µM | NCI-H522 2.13 µM | OVCAR-8 2.38 µM | RPMI-8226 3.52 µM | SK-MEL-28 1.69 µM | TK-10 2.67 µM | U-251 1.33 µM
